What is called GI50 is the concentration giving 50% growth inhibition. Broadly, the TGI is the concentration giving total growth inhibition.

Where “and” joins values, the source holds several entries; their conditions need not be identical. Equal entries are not always repeated.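 All cell lines were grown in 96-well plates and treated with compound for 48 hours. GI50 is the concentration that inhibits growth by half. The concentration for full growth arrest is given as TGI.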

Results on nine molecules are retold here after PubChem BioAssay (NCI).

Test systems include UACC-62 melanoma; U251 CNS; OVCAR-5 ovarian; K-562 leukemia; NCI-H460 lung; HOP-62 NSCLC; NCI-H226 lung; SNB-75 CNS; NCI-H23 lung; MALME-3M melanoma.
What all share (experiment): DTP human tumour cell line panel, 48 h

In the case of `CCOC(=O)CCC(NC(=O)c1ccc(N=Cc2nc3cc(C(F)(F)F)ccc3nc2-c2ccccc2)cc1)C(=O)OCC` (stereo not drawn), the GI50 was 61.6 µM with UACC-62 melanoma; 9.75 µM in the test with U251 CNS; above 100 µM with OVCAR-5 ovarian; above 100 µM in the test with K-562 leukemia; above 100 µM in the test with NCI-H460 lung; 16.3 µM in the test with HOP-62 NSCLC. Further, the GI50 with NCI-H226 lung is above 100 µM; in the test with SNB-75 CNS, 3.64 µM; in the test on NCI-H23 lung it was 28.9 µM; with MALME-3M melanoma it was above 100 µM. Further, the TGI is 40.7 µM and > 100 µM in the test with UACC-62 melanoma; 19.4 µM and 57.1 µM in the test on U251 CNS; above 100 µM in the test with OVCAR-5 ovarian; above 100 µM with K-562 leukemia; 50 µM and > 100 µM in the test with NCI-H460 lung; 50 µM and 40.6 µM in the test with HOP-62 NSCLC. Moreover, the concentration for total growth inhibition (TGI) is above 100 µM in the test on NCI-H226 lung; 13 µM and 14.1 µM with SNB-75 CNS; 21.6 µM and > 100 µM in the test with NCI-H23 lung; 22.7 µM and > 100 µM in the test on MALME-3M melanoma.

In the case of `Cc1cc(Br)cc(C)c1NC(=O)C(=O)CC(=O)c1sc(-n2nc(-c3ccccc3)cc2-c2ccccc2)nc1C`, the TGI with UACC-62 melanoma, in the test with U251 CNS, with OVCAR-5 ovarian, with K-562 leukemia, in the test with NCI-H460 lung and with HOP-62 NSCLC was above 100 µM each time. Also, the TGI in the test with NCI-H226 lung, in the test on SNB-75 CNS, in the test on NCI-H23 lung and in the test on MALME-3M melanoma was above 100 µM throughout.

Take `Nc1nc(N)[n+]([O-])c(N)c1NCO`: the TGI with UACC-62 melanoma, with U251 CNS, with OVCAR-5 ovarian, in the test on K-562 leukemia, in the test on NCI-H460 lung and in the test with HOP-62 NSCLC was above 100 µM each time. Also, the TGI in the test with NCI-H226 lung, in the test on SNB-75 CNS, with NCI-H23 lung and with MALME-3M melanoma was above 100 µM each time.

`O=C1C2CC(Cl)C(SSC3CC4C(=O)N(SC(Cl)(Cl)C(Cl)Cl)C(=O)C4CC3Cl)CC2C(=O)N1SC(Cl)(Cl)C(Cl)Cl` (stereo not drawn): the TGI in the test on UACC-62 melanoma was determined as 4.49 µM; in the test on U251 CNS, 3.75 µM; in the test on OVCAR-5 ovarian, 66.3 µM; with K-562 leukemia it was 5.01 µM; with NCI-H460 lung it was 13.4 µM; in the test on HOP-62 NSCLC, 8.64 µM. Further, the TGI stood at 26.4 µM in the test on NCI-H226 lung, 6.12 µM in the test on SNB-75 CNS, 5.65 µM in the test with NCI-H23 lung and 2.86 µM with MALME-3M melanoma.

As to `Cc1cc2c(C)c3cc(C)c(N)cc3nc2cc1N`, the GI50 was 0.998 µM with UACC-62 melanoma; 0.648 µM with U251 CNS; 0.884 µM with OVCAR-5 ovarian; 0.548 µM in the test with K-562 leukemia; 0.332 µM with NCI-H460 lung; 1.11 µM in the test with HOP-62 NSCLC. For the same molecule, the GI50 with NCI-H226 lung is 0.864 µM; with SNB-75 CNS, 1.14 µM; with NCI-H23 lung it was 0.852 µM; in the test with MALME-3M melanoma, 1.72 µM. Also, the TGI stood at 3.58 µM in the test with UACC-62 melanoma; 5.72 µM with U251 CNS; 5.34 µM in the test on OVCAR-5 ovarian; 4.96 µM in the test with K-562 leukemia; 1.34 µM with NCI-H460 lung; 7.08 µM in the test on HOP-62 NSCLC. Also, the TGI was determined as 4.56 µM in the test with NCI-H226 lung, 4.94 µM in the test with SNB-75 CNS, 4.28 µM with NCI-H23 lung and 6.31 µM in the test on MALME-3M melanoma.

With `O=[N+]([O-])c1ccc(-c2ccc(/C=N/n3c(-c4ccc(Cl)cc4)n[nH]c3=S)o2)cc1`, the total growth inhibition concentration (TGI) was above 100 µM with UACC-62 melanoma; above 53.7 µM in the test with U251 CNS; above 100 µM in the test on OVCAR-5 ovarian; above 31.6 µM in the test with K-562 leukemia; above 54.7 µM in the test on NCI-H460 lung; above 52.9 µM in the test on HOP-62 NSCLC. For the same molecule, the TGI in the test with NCI-H226 lung was above 58.5 µM; in the test with SNB-75 CNS, above 83.1 µM; with NCI-H23 lung, above 56.6 µM; in the test on MALME-3M melanoma, 43.1 µM.

Turning to `C[C@@H](c1ccc2nccn2c1)n1nnc2ncc(-c3cnn(C)c3)nc21`, the GI50 with UACC-62 melanoma, in the test on U251 CNS, in the test on OVCAR-5 ovarian, in the test with K-562 leukemia, in the test with NCI-H460 lung and in the test on HOP-62 NSCLC was above 100 µM each time. Besides, the GI50 with NCI-H226 lung, in the test on SNB-75 CNS, in the test with NCI-H23 lung and in the test with MALME-3M melanoma was above 100 µM in each case. For the same molecule, the TGI in the test with UACC-62 melanoma, in the test on U251 CNS, in the test with OVCAR-5 ovarian, in the test with K-562 leukemia, in the test with NCI-H460 lung and in the test with HOP-62 NSCLC was above 100 µM in each case. Moreover, the total growth inhibition concentration (TGI) in the test on NCI-H226 lung, with SNB-75 CNS, with NCI-H23 lung and with MALME-3M melanoma was above 100 µM in each case.

In the case of `COc1cc(-c2cc(C(=O)N3CCN(C(=O)c4ccccc4NCc4ccco4)CC3)nc3cc(-c4ccccc4)nn23)cc(OC)c1OC`, the GI50 in the test on UACC-62 melanoma was 4.71 µM; in the test on U251 CNS it was 3.85 µM; with OVCAR-5 ovarian it was 9.66 µM; in the test on K-562 leukemia, 1.95 µM; with NCI-H460 lung, 2.55 µM; in the test on HOP-62 NSCLC, 3.03 µM. Moreover, the GI50 is 5.48 µM with NCI-H226 lung, 2.07 µM with SNB-75 CNS, 5.5 µM with NCI-H23 lung and 7.58 µM with MALME-3M melanoma. The TGI in the test on UACC-62 melanoma, with U251 CNS, with OVCAR-5 ovarian, in the test with K-562 leukemia, in the test with NCI-H460 lung and in the test on HOP-62 NSCLC was above 100 µM each time. For the same molecule, the TGI in the test with NCI-H226 lung was above 100 µM; with SNB-75 CNS, 19.3 µM; in the test on NCI-H23 lung it was above 100 µM; in the test on MALME-3M melanoma, above 100 µM.

As to `COc1cc(O)c(C(=O)/C=C/c2ccccc2)c(OC)c1`, the TGI in the test on UACC-62 melanoma is 17.3 µM; in the test with U251 CNS, 21.3 µM; in the test on OVCAR-5 ovarian it was above 100 µM; in the test with NCI-H460 lung, 13.3 µM; with HOP-62 NSCLC, 38.5 µM; in the test with NCI-H226 lung it was 12.8 µM. The TGI in the test on NCI-H23 lung turned out to be 19.4 µM; in the test on MALME-3M melanoma, 18.2 µM.
